Measurements published in patent US12109207B2, “Methods of using 4(1H)-quinolone derivatives” (Academia Sinica, priority 2019, dated 2024).
Read-outs that look alike come from different tables or passages of the source.

Assays:
HDQP1 = assay: Cell cytotoxicity assay, HDQP1; format: cell-based; conditions: Homo sapiens, HDQ-P1; TNBC cell line HDQP1
Method: (§1) Cells were seeded into the wells of 96-well plates (2000 cells/well). After an overnight culture, the cells were treated with different concentrations of a compound for 72 h. The CellTiter 96 AQueous one-solution cell proliferation assay (MTS) reagent was used to determine cytotoxicity. After treatment with a compound, 20 μL of the MTS reagent was added to each well and the plates were incubated at 37° C. for 1-4 h. Next, the absorbance at 490 nm of the culture medium in each well was determined using a VersaMax microplate reader (Molecular Devices).

KBtax xenograft tumors = assay: KBtax xenograft tumor model; format: in vivo, BALB/c nude mice; conditions: for average tumor size: after 21 days, i.p. three times a week, paclitaxel 15 mg/kg, RJ-LC-15-8 8 mg/kg
Method: (§2) Using the H1975, MDA-MB-231, and KBtax xenograft models, tumors were established after inoculation into the right flanks of 6-week-old BALB/c nude mice (NARLabs, Taipei, Taiwan). After establishment of the tumors, vehicle and test compounds, which had been dissolved in DMSO, were each injected intraperitoneally into a separate group of animals three times per week. The body mass of each animal and tumor volumes were measured before each drug delivery. Tumor volume was calculated as 0.5W^2L (with W being the width of the smaller diameter and L being the length of the larger diameter). The animal experiment was carried out in accordance with the procedures and guidelines of the Institutional Animal Care and Use Committee, Institute of Biomedical Sciences, Academia Sinica.

CCRF-CEM = assay: Cell cytotoxicity assay (MTS), CCRF-CEM; format: cell-based; conditions: Homo sapiens
Method: as §1

KBtax = assay: Cell cytotoxicity assay (MTS), KBtax; format: cell-based, human; conditions: for IC50: Homo sapiens, KBtax, P-gp overexpressing, paclitaxel-selected KB subline; for RF, resistance factor (IC50 in resistant cell line/IC50 in parent cell line): KBtax vs KB
Method: as §1

CEM/VBL = assay: Cell cytotoxicity assay (MTS), CEM/VBL; format: cell-based, human; conditions: for RF, resistance factor (IC50 in resistant cell line/IC50 in parent cell line): CEM/VBL vs CCRF-CEM; for IC50: Homo sapiens, CEM/VBL, P-gp overexpressing, vinblastine-selected CCRF-CEM subline
Method: as §1

HDQP1/TAX = assay: Cell cytotoxicity assay, HDQP1/TAX; format: cell-based, human; conditions: for RF, resistance factor (IC50 in resistant cell line/IC50 in parent cell line): HDQP1/TAX vs HDQP1; for IC50: Homo sapiens, HDQ-P1, Paclitaxel-resistant subline
Method: as §1

[1] = Body mass and serum biochemical markers, KBtax xenograft mice; format: in vivo, BALB/c nude mice
Method: The body mass of each animal and tumor volumes were measured before each drug delivery. Tumor volume was calculated as 0.5W^2L (with W being the width of the smaller diameter and L being the length of the larger diameter). The animal experiment was carried out in accordance with the procedures and guidelines of the Institutional Animal Care and Use Committee, Institute of Biomedical Sciences, Academia Sinica.

Purified porcine tubulin = molecular target: T1, Purified porcine tubulin (Sus scrofa, UniProt P02554); assay: In vitro tubulin polymerization assay; format: biochemical; conditions: 5 μM, A340 every min for 1 h at 37° C.
T1 construct: purchased Cytoskeleton
Method: Reagents from a Tubulin Polymerization Assay kit (Cytoskeleton) were used according to the manufacturer's instructions. Purified porcine tubulin (4 mg/mL; >99% purity) in G-PEM buffer (80 mM PIPES, 2 mM MgCl2, 0.5 mM EGTA, 1 mM GTP, 15% glycerol, pH 6.9) was mixed with each test compound in the wells of a 96-well plate. Then, the A340 value was recorded each minute for 1 h at 37° C. with the VersaMax microplate reader.

KBvin = assay: Cell cytotoxicity assay (MTS), KBvin; format: cell-based, human; conditions: for IC50: Homo sapiens, KBvin, P-gp overexpressing, vincristine-selected KB subline; for RF, resistance factor (IC50 in resistant cell line/IC50 in parent cell line): KBvin vs KB
Method: as §1

BT-549 = assay: Cell cytotoxicity assay (MTS), BT-549; format: cell-based; conditions: Homo sapiens, BT-549, 72 h
Method: as §1

KB = assay: Cell cytotoxicity assay (MTS), KB; format: cell-based; conditions: Homo sapiens
Method: as §1

P-gp expression = P-gp expression immunoblotting in KBtax cells; format: cell-based, human; conditions: 24 h
Method: The cells were harvested and lysed in RIPA buffer (20 mM Tris-HCl, 150 mM NaCl, 1 mM Na2EDTA, 1% sodium deoxycholate, 1% IGEPAL CA-630, 0.1% SDS, pH 7.5) with protease inhibitors (Roche). Protein concentration was measured by the BCA assay. For immunoprecipitation, protein extracts were incubated with mag-beads-AS1712 or mag-beads-control at 4° C. overnight and then washed five times with PBS before immunoblotting. For immunoblotting, equivalent amounts of denatured proteins were separated through SDS-PAGE gels and then transferred to PVDF membranes (Millipore), which were each blocked with 5% nonfat milk in PBS and 0.1% Tween-20 (Sigma Aldrich) for 1 h. Then each membrane was incubated with a primary antibody overnight at 4° C., followed by incubation with a horseradish peroxidase conjugated secondary antibody for 1 h at room temperature. The signal was visualized by enhanced chemiluminescence detection, and images were acquired using a BioSpectrum Imaging System (UVP).

82T = assay: Cell cytotoxicity assay (MTS), 82T; format: cell-based; conditions: Homo sapiens, 72 h
Method: as §1

[2] = tested on: human fibroblast (HFB) cells; assay: Cell cytotoxicity assay (MTS), human fibroblast; format: cell-based; conditions: normal cell line HFB
Method: as §1

37T = assay: Cell cytotoxicity assay (MTS), 37T; format: cell-based; conditions: Homo sapiens, 72 h
Method: as §1

Hs578t = assay: Cell cytotoxicity assay (MTS), Hs578t; format: cell-based; conditions: Homo sapiens, Hs-578T, 72 h
Method: as §1

[3] = tested on: MDA-MB-231 xenograft tumors; assay: MDA-MB-231 xenograft tumor model; format: in vivo, BALB/c nude mice; conditions: day 35
Method: as §2

[4] = Body mass, MDA-MB-231 xenograft mice; format: in vivo, BALB/c nude mice; conditions: 4 or 8 mg/kg i.p. three times a week, 35 days
Method: as §2

MDA-MB-231 = assay: Cell cytotoxicity assay (MTS), MDA-MB-231; format: cell-based; conditions: Homo sapiens, MDA-MB-231, 72 h
Method: as §1

P-gp = molecular target: T2, P-gp (Homo sapiens, UniProt P08183); assay: Rhodamine efflux assay; format: cell-based; conditions: KBtax cells
T2 construct: KBtax, KBvin, and CEM/VBL cancer cell lines, which overexpress P-gp; endogenous in cells; host or cells: KBtax cells (paclitaxel-selected subline of human KB)
Method: KBtax cells (2.5×10^5/test) were collected and held on ice for 1 h in cold medium with […] rhodamine. Then, the cells were resuspended in medium warmed to 37° C. with one of the indicated compounds and incubated for 1 h in a water bath at the same temperature for efflux determination. The fluorescence intensities were quantified by FACSCanto flow cytometry.

[5] = Body mass and serum biochemical markers, H1975 xenograft mice; format: in vivo, BALB/c nude mice; conditions: 4 or 8 mg/kg i.p. three times a week, end of experiment
Method: as §2

H1975 xenograft tumor = H1975 xenograft tumor model; format: in vivo, BALB/c nude mice; conditions: day 21
Method: as §2

TNBC cell lines = assay: Cytotoxicity against triple-negative breast cancer cell lines; format: cell-based; conditions: Homo sapiens; BT-549, Hs578t, MDA-MB-231, 37T, 82T; 72 h MTS; read-out: IC50 values in different TNBC cell lines
Method: as §1

H1975 cells = assay: Cell cytotoxicity assay (MTS), H1975; format: cell-based, human; conditions: Homo sapiens, read-out: IC50
Method: as §1

[6] = molecular target: colchicine site of tubulin (Sus scrofa, UniProt P02554); assay: Colchicine competition assay; format: binding; conditions: 37° C. for 1 h
Method: Tubulin ([…]) and colchicine ([…]) were incubated with the various concentrations of AS1712, nocodazole, or vincristine in 80 mM PIPES, 2 mM MgCl2, 0.5 mM EGTA, pH 6.9 at 37° C. for 1 h. Fluorescence intensities (excitation and emission wavelengths at 365 and 435 nm, respectively) were recorded using an Infinite M200 plate reader (Tecan). Fluorescence values were normalized to the DMSO control.

tubulin = tubulin (Sus scrofa, UniProt P02554); assay: Limited proteolysis assay; format: binding; conditions: 100 μM, 30 min at 30° C.
Method: Tubulin (1 mg/mL) was incubated individually with a test compound for 30 min at 30° C. in 0.1 M morpholino ethanesulfonic acid, 1 mM MgCl2, 1 mM EGTA, pH 6.9, and then 25 μg/mL trypsin (TPCK-treated, Sigma Aldrich; 1:40 [w/w] trypsin/tubulin) was added to the solution for a 10-min digestion at 4° C. Samples were electrophoresed through a 15% SDS-PAGE gel and stained with Coomassie brilliant blue R250. The images were scanned and quantified using a BioSpectrum Imaging System (UVP).

[7] = end of experiment, paclitaxel 15 mg/kg, RJ-LC-15-8 8 mg/kg, mean ± SEM
[8] = 4 mg/kg intraperitoneally three times a week
[9] = 8 mg/kg intraperitoneally three times a week

Row | Compound | IC50 (HDQP1) | average tumor size (KBtax xenograft tumors) | IC50 (CCRF-CEM) | IC50 (KBtax) | RF, resistance factor (IC50 in resistant cell line/IC50 in parent cell line) (KBtax) | RF, resistance factor (IC50 in resistant cell line/IC50 in parent cell line) (CEM/VBL) | IC50 (CEM/VBL) | RF, resistance factor (IC50 in resistant cell line/IC50 in parent cell line) (HDQP1/TAX) | IC50 (HDQP1/TAX) | AST(IU/L) [1, 7] | BUN [1, 7] | Cre [1, 7] | tubulin polymerization (Purified porcine tubulin) | IC50 (KBvin) | RF, resistance factor (IC50 in resistant cell line/IC50 in parent cell line) (KBvin) | IC50 (KB) | colchicine fluorescence [6] | tryptic pattern after limited trypsin digestion (tubulin) | further results
1 | CC(=O)O[C@H]1C(=O)[C@@]2(C)[C@H]([C@H](OC(=O)c3ccccc3)[C@]3(O)C[C@H](OC(=O)[C@H](O)[C@@H](NC(=O)c4ccccc4)c4ccccc4)C(C)=C1C3(C)C)[C@]1(OC(C)=O)CO[C@@H]1C[C@@H]2O [Paclitaxel, paclitaxel] | 5 ± 3.05 nM | 868.7±121.4 mm^3 | 4 ± 0.02 nM | 101 ± 5.52 nM | 10 | 214 | 857 ± 9.89 nM | 167 | 839 ± 142 nM | 102.8 ± 18.9 IU/L | 19 ± 1.3 mg/dL | 0.16 ± 0.02 mg/dL | enhanced polymerization | 708 ± 46.9 nM | 70 | – | – | – | –
2 | CCOC(=O)c1ccc2[nH]c(-c3cccc(F)c3)cc(=O)c2c1 [RJ-LC-15-8, Ethyl 2-(3-fluorophenyl)-4-oxo-1,4-dihydroquinoline-6-carboxylate] | 39 ± 0.49 nM | 528.4±101.6 mm^3 | 20 ± 1.71 nM | 30 ± 1.35 nM | 0.88 | 0.8 | 16 ± 0.52 nM | 1.02 | 40 ± 3.26 nM | 120.7 ± 27.5 IU/L | 18.2 ± 1 mg/dL | 0.26 ± 0.04 mg/dL | direct inhibition | 35 ± 0.88 nM | 1 | 34 ± 0.39 nM | – | – | IC50 (BT-549): 21 ± 1.14 nM; TUNEL staining of the tumor tissues (KBtax xenograft tumors; 8 mg/kg, 21 days): induced apoptosis; P-gp expression (P-gp expression): did not affect; IC50 (82T): 23 ± 1.27 nM; IC50 [2]: > 10 µM; IC50 (37T): 22 ± 0.61 nM; IC50 (Hs578t): 34 ± 4.71 nM; average tumor size [3, 8]: 105±9.4 mm^3; average tumor size [3, 9]: 73.6±8.2 mm^3; body mass [4]: did not affect; IC50 (MDA-MB-231): 35 ± 1.45 nM; Body mass and serum biochemical markers for liver and kidney functions ([1]; 8 mg/kg, end of the experiment): not negatively affected; ALT (IU/L) [1, 7]: 64 ± 10.8 IU/L; P-gp pump activity (P-gp): did not directly inhibit; body mass [5]: not affected; average tumor size (H1975 xenograft tumor; [8]): 1333±121.9 mm^3; average tumor size (H1975 xenograft tumor; [9]): 972.5±52.3 mm^3; IC50 (TNBC cell lines): 21 to 35 nM; IC50 (H1975 cells; NCI-H1975, 72 h, H1975 cells, 72 h, MTS): 24 nM; IC50 (H1975 cells; NCI-H1975, Table 8, cell line not given, values match H1975): 24 ± 1 nM
3 | CC[C@]1(O)C[C@H]2CN(CCc3c([nH]c4ccccc34)[C@@](C(=O)OC)(c3cc4c(cc3OC)N(C=O)[C@H]3[C@@](O)(C(=O)OC)[C@H](OC(C)=O)[C@]5(CC)C=CCN6CC[C@]43[C@@H]65)C2)C1 [Vincristine, vincristine] | – | – | 3 ± 0.04 nM | 49 ± 2.96 nM | – | 440 | 1320 ± 20.6 nM | – | – | – | – | – | inhibit tubulin polymerization | 817 ± 47.4 nM | 163 | 5 ± 0.31 nM | did not | decreased the amount of the βcol, αN, and αC fragments | –
4 | COC(=O)Nc1nc2ccc(C(=O)c3cccs3)cc2[nH]1 [nocodazole] | – | – | – | – | – | – | – | – | – | – | – | – | inhibit tubulin polymerization | – | – | – | decreased the colchicine fluorescence in a dose-dependent manner | produced an increased amount of βcol | –
